Results reported in patent publication US8999942B2, “Polyol modified aminoglycoside-lipid conjugates” (University of Manitoba, priority 2010, dated 2015).

How the values were obtained:
[1] = test system: E. coli (Gentamicin-resistant) CAN-ICU 61714; experiment: MIC, broth macrodilution (CLSI), gentamicin-resistant E. coli; format: cell-based; conditions: footnote ATCC 6174 (gentamicin resistant)
Method: (§1) All compounds were tested against American Type Culture Collection (ATCC) reference strains as well as clinical isolates from the Canadian Intensive Care Unit (CAN-ICU) study (Zhanel, et al., 2008). […] Antibacterial activity against Gram-positive and Gram-negative microorganisms was performed via broth macrodilution tests using CLSI methodology (Clinical and Laboratory Standards Institute, 2006). The minimum inhibitory concentration (MIC) in μg/mL of the aminoglycoside-derived amphiphilic polycarbamates and polyethers were determined using established methods (Clinical and Laboratory Standards Institute, 2006) and are shown in Tables 1 and 2, respectively.

[2] = test system: methicillin-resistant Staphylococcus aureus (MRSA) ATCC 33592; experiment: MIC, broth macrodilution (CLSI), MRSA ATCC 33592; format: cell-based; conditions: MRSA, methicillin-resistant S. aureus ATCC 33592
Method: as §1

[3] = test system: Pseudomonas aeruginosa ATCC 27853; experiment: MIC, broth macrodilution (CLSI), P. aeruginosa ATCC 27853; format: cell-based
Method: as §1

[4] = test system: Acinetobacter baumanni (CAN-ICU 63169); experiment: MIC, broth macrodilution (CLSI), A. baumannii; format: cell-based; conditions: A. baumannii CAN-ICU 63169
Method: as §1

[5] = test system: E. coli (Amikacin MIC 32) CAN-ICU 63074; experiment: MIC, broth macrodilution (CLSI), E. coli CAN-ICU 63074; format: cell-based
Method: as §1

E. coli ATCC 25922 = experiment: MIC, broth macrodilution (CLSI), E. coli ATCC 25922; format: cell-based
Method: as §1

[6] = test system: Streptococcus pneumoniae ATCC 49619; experiment: MIC, broth macrodilution (CLSI), S. pneumoniae ATCC 49619; format: cell-based
Method: as §1

S. aureus ATCC 29213 = experiment: MIC, broth macrodilution (CLSI), S. aureus ATCC 29213; format: cell-based, Staphylococcus aureus
Method: as §1

[7] = test system: Stenotrophomonas maltophilia (CAN-ICU 62585); experiment: MIC, broth macrodilution (CLSI), S. maltophilia; format: cell-based; conditions: S. maltophilia, footnote CAN-ICU 62584
Method: as §1

[8] = test system: S. epidermidis ATCC 14990; experiment: MIC, broth macrodilution (CLSI), S. epidermidis; format: cell-based, Staphylococcus epidermidis; conditions: footnote ATCC 1490
Method: as §1

S. pneumoniae ATCC 13883 = experiment: MIC, broth macrodilution (CLSI), S. pneumoniae ATCC 13883; format: cell-based
Method: as §1

[9] = test system: methicillin-resistant Staphylococcus epidermidis (MRSE) CAN-ICU 61589; experiment: MIC, broth macrodilution (CLSI), MRSE; format: cell-based; conditions: methicillin-resistant S. epidermidis, footnote (ATCC 14990)
Method: as §1

[10] = test system: P. aeruginosa (Gent-R) CAN-ICU 62308; experiment: MIC, broth macrodilution (CLSI), P. aeruginosa CAN-ICU 62308; format: cell-based, Pseudomonas aeruginosa
Method: as §1

| Compound | Minimal Inhibitory Concentration (MIC) [1] [mg/L] | Minimal Inhibitory Concentration (MIC) [2] [mg/L] | Minimal Inhibitory Concentration (MIC) [3] [mg/L] | Minimal Inhibitory Concentration (MIC) [4] [mg/L] | Minimal Inhibitory Concentration (MIC) [5] [mg/L] | Minimal Inhibitory Concentration (MIC) (E. coli ATCC 25922) [mg/L] | Minimal Inhibitory Concentration (MIC) [6] [mg/L] | Minimal Inhibitory Concentration (MIC) (S. aureus ATCC 29213) [mg/L] | Minimal Inhibitory Concentration (MIC) [7] [mg/L] | Minimal Inhibitory Concentration (MIC) [8] [mg/L] | Minimal Inhibitory Concentration (MIC) (S. pneumoniae ATCC 13883) [mg/L] | Minimal Inhibitory Concentration (MIC) [9] [mg/L] | Minimal Inhibitory Concentration (MIC) [10] [mg/L] |
| --- | --- | --- | --- | --- | --- | --- | --- | --- | --- | --- | --- | --- | --- |
| CN(C)c1ccc(NC(=O)OCC2OC(OC3C(N)CC(N)C(OC4OC(CN)C(OC(=O)Nc5ccc(N(C)C)cc5)C(OC(=O)Nc5ccc(N(C)C)cc5)C4OC(=O)Nc4ccc(N(C)C)cc4)C3OC(=O)Nc3ccc(N(C)C)cc3)C(OC(=O)Nc3ccc(N(C)C)cc3)C(N)C2OC(=O)Nc2ccc(N(C)C)cc2)cc1.O=C(O)C(F)(F)F.O=C(O)C(F)(F)F.O=C(O)C(F)(F)F.O=C(O)C(F)(F)F.O=C(O)C(F)(F)F.O=C(O)C(F)(F)F.O=C(O)C(F)(F)F.O=C(O)C(F)(F)F.O=C(O)C(F)(F)F.O=C(O)C(F)(F)F.O=C(O)C(F)(F)F (centres unmarked) [Compound 7] | 256 | 32 | >256 | >256 | 256 | 256 | >256 | 16 | >256 | 16 | >256 | 32 | 256 |
| NCCC(OC(=O)Nc1ccccc1)C(=O)NC1CC(N)C(OC2OC(CN)C(OC(=O)Nc3ccccc3)C(OC(=O)Nc3ccccc3)C2OC(=O)Nc2ccccc2)C(OC(=O)Nc2ccccc2)C1OC1OC(COC(=O)Nc2ccccc2)C(OC(=O)Nc2ccccc2)C(N)C1OC(=O)Nc1ccccc1.O=C(O)C(F)(F)F.O=C(O)C(F)(F)F.O=C(O)C(F)(F)F.O=C(O)C(F)(F)F (centres unmarked) [Compound 8] | 256 | 16 | >256 | 256 | 256 | 256 | 32 | 8 | 128 | 2 | 256 | 2 | 256 |
| NCC1OC(OC2C(N)CC(N)C(OC(=O)Nc3ccccc3)C2OC(=O)Nc2ccccc2)C(N)C(OC(=O)Nc2ccccc2)C1OC(=O)Nc1ccccc1.O=C(O)C(F)(F)F.O=C(O)C(F)(F)F.O=C(O)C(F)(F)F.O=C(O)C(F)(F)F (centres unmarked) [Compound 10] | 32 | 16 | 128 | 256 | 32 | 32 | >256 | 16 | 64 | 8 | 64 | 8 | 128 |
| NCC1OC(OC2C(N)CC(N)C(OCc3ccc(Cl)cc3)C2OC2OC(COCc3ccc(Cl)cc3)C(OC3OC(CN)C(OCc4ccc(Cl)cc4)C(OCc4ccc(Cl)cc4)C3N)C2OCc2ccc(Cl)cc2)C(N)C(OCc2ccc(Cl)cc2)C1OCc1ccc(Cl)cc1.O=C(O)C(F)(F)F.O=C(O)C(F)(F)F.O=C(O)C(F)(F)F.O=C(O)C(F)(F)F.O=C(O)C(F)(F)F.O=C(O)C(F)(F)F (centres unmarked) [Compound 12] | >128 | 64 | >128 | >128 | 64 | 128 | 128 | 64 | >128 | 32 | 128 | 64 | >128 |
| CC(C)(C)c1ccc(COCC2OC(OC3C(OCc4ccc(C(C)(C)C)cc4)C(N)CC(N)C3OC3OC(CN)C(OCc4ccc(C(C)(C)C)cc4)C(OCc4ccc(C(C)(C)C)cc4)C3N)C(OCc3ccc(C(C)(C)C)cc3)C2OC2OC(CN)C(OCc3ccc(C(C)(C)C)cc3)C(OCc3ccc(C(C)(C)C)cc3)C2N)cc1.O=C(O)C(F)(F)F.O=C(O)C(F)(F)F.O=C(O)C(F)(F)F.O=C(O)C(F)(F)F.O=C(O)C(F)(F)F.O=C(O)C(F)(F)F (centres unmarked) [Compound 13] | 128 | 128 | 256 | >128 | 128 | 128 | 256 | 128 | >128 | 64 | >128 | 64 | 128 |
| NCC1OC(OC2C(N)CC(N)C(OC3OC(COCc4ccccc4)C(OCc4ccccc4)C(N)C3OCc3ccccc3)C2OCc2ccccc2)C(OCc2ccccc2)C(OCc2ccccc2)C1OCc1ccccc1.O=C(O)C(F)(F)F.O=C(O)C(F)(F)F.O=C(O)C(F)(F)F.O=C(O)C(F)(F)F (centres unmarked) [Compound 15] | 32 | 8 | >64 | >64 | 16 | 32 | 32 | 8 | >64 | 4 | >64 | 8 | >64 |
| NCC1OC(OC2C(N)CC(N)C(OC3OC(COCc4ccc(Cl)cc4)C(OCc4ccc(Cl)cc4)C(N)C3OCc3ccc(Cl)cc3)C2OCc2ccc(Cl)cc2)C(OCc2ccc(Cl)cc2)C(OCc2ccc(Cl)cc2)C1OCc1ccc(Cl)cc1.O=C(O)C(F)(F)F.O=C(O)C(F)(F)F.O=C(O)C(F)(F)F.O=C(O)C(F)(F)F (centres unmarked) [Compound 16] | 128 | 32 | >128 | >128 | 64 | 128 | 64 | 32 | >128 | 32 | >128 | 16 | >128 |
| NCCC(OCc1ccccc1)C(=O)NC1CC(N)C(OC2OC(CN)C(OCc3ccccc3)C(OCc3ccccc3)C2OCc2ccccc2)C(OCc2ccccc2)C1OC1OC(COCc2ccccc2)C(OCc2ccccc2)C(N)C1OCc1ccccc1.O=C(O)C(F)(F)F.O=C(O)C(F)(F)F.O=C(O)C(F)(F)F.O=C(O)C(F)(F)F (centres unmarked) [Compound 18] | 16 | 4 | 128 | 32 | 16 | 16 | 32 | 4 | 32 | 1 | 16 | 1 | 64 |
